Test results as given in patent publication US8653072B2, “Estrogen receptor ligands” (Karo Bio AB, priority 2008, dated 2014).

Legend:
human ERβ (ERβ-LBD) = molecular target: T1, human ERβ (ERβ-LBD) (Homo sapiens, UniProt Q92731); assay: Binding assay 1: estrogen receptor SPA binding assay (3H-E2 displacement), ERβ; settings: read-out: binding affinity to the estrogen receptor β-subtype, IC50
T1 construct: ERβ (ERβ-LBD, pET-N-AT #1, aa 255-530); made in house; host or cells: E. coli BL21 (DE3) pBirA
Protocol: Binding Assay 1: Estrogen Receptor Binding Assay
The estrogen receptor ligand binding assays are designed as scintillation proximity assays (SPA), employing the use of tritiated estradiol (^3H-E2) and recombinant expressed biotinylated estrogen receptor binding domains. The binding domains of human ERα (ERα-LBD, pET-N-AT #1, aa 301-595) and ERβ (ERβ-LBD, pET-N-AT #1, aa 255-530) proteins are produced in E. coli ((BL21, (DE3), pBirA)) at 22 C in 2×LB medium supplemented with 50 uM biotin. After 3 h of IPTG induction (0.55 mM), cells are harvested by centrifugation at 7300×g for 15 min and cell pellets stored frozen in −20 C. Extraction of ERα and ERβ are performed using 5 g of cells suspended in 50 mL of extraction buffer (50 mM Trig, pH 8.0, 100 mM KCl, 4 mM EDTA, 4 mM DDT and 0.1 mM PMSF). The cell suspension is run twice through a Microfluidizer M-110L (Microfluidics) and centrifuged at 15,000×g for 60 min. The supernatant is aliquoted and stored in −70 C.
Dilute ERα-LBD or ERβ-LBD extracts in assay buffer (18 mM K2HPO4, 2 mM KH2PO4, 20 mM NasMoO4, 1 mM EDTA, 1 mM TCEP) 1:676 and 1:517 for alpha and beta respectively. The diluted receptor concentrations should be 900 fmol/L. Preincubate the extracts with streptavidin coated polyvinyltoluene SPA beads (RPNQ0007, GE Healthcare) at a concentration of 0.43 mg/mL for 1 hr at room temperature.
Test compounds are evaluated over a range of concentrations from 157 μM to 37.5 pM. The test compound stock solutions should be made in 100% DMSO at 5× of the final concentration desired for testing in the assay. The amount of DMSO in the test wells of the 384 well plate will be 20%. Add 18 μl aliquots of test compounds to the assay plates followed by 35 μl of the preincubated receptor/SPA bead mix and finally add 35 μl of 3 nM ^3H-E2. Cover the plates with a plastic sealer, centrifuge for 1 minute at 1000 rpm and equilibrate over night on a shaker at room temperature. The following morning, centrifuge the plates 5 minutes at 2000 rpm and measure on a plate scintillation counter e.g. a PerkinElmer Microbeta 1450 Trilux.
For compounds able to displace 3[H]-E2 from the receptor an IC50-value (the concentration required to inhibit 50% of the binding of 3[H]-E2) is determined by a non-linear four parameter logistic model; b=((bmax−bmin)/(1+(I/IC50)S))+bmin I is added concentration of binding inhibitor, IC50 is the concentration of inhibitor at half maximal binding and S is a slope factor. The Microbeta-instrument generates the mean cpm (counts per minute) value/minute and corrects for individual variations between the detectors thus generating corrected cpm values.

[1] = molecular target: T2, human estrogen receptor beta (hERβ 530) (Homo sapiens, UniProt Q92731); assay: Transactivation assay 2: HEK293 cells stably transfected with pERE2-ALP and human estrogen receptor beta; assay type: cell-based; settings: read-out: potency at the estrogen receptor β-subtype, EC50
T2 construct: expressed in transfected cells
Protocol: Transactivation Assay 2: Transactivation Assay in Human Embryonic Kidney 293 Cells Stably Transfected with pERE2-ALP and Human Estrogen Receptor Beta
Generation of stable HEK293 cell lines (CRL-1573; American Type Culture Collection) expressing the reporter vector pERE2-ALP and human estrogen receptor beta (hERβ 530) have been described (Mol Pharmacol 1998, 54, 105-112; Endocrinology 2002, 143, 1558-1561),
The cells were seeded in 384-well plates at 12 500 cells per well in Ham's F12 Coon's modification (without phenol red) with 10% dextran-coated charcoal treated (DCC) fetal bovine serum (FBS), 2 mM L-glutamine and 50 μg/ml gentamicin. After 24 h incubation (37° C., 5% CO2) the seeding medium was discarded and replaced with 20 μl Ham's F12 Coon's modification (without phenol red) with 1.5 DCC-FCS, 2 mM L-glutamine and supplemented with 100 U/ml penicillin and 100 μg/ml streptomycin. The selected compounds were added to the wells in 12 concentrations ranging from […] to 33 μM. The compounds were dissolved in 100% dimethylsulfoxide (DMSO) and the final concentration of DMSO in the assay was 0.1%. After 72 h incubation (37° C., 5% CO2) the medium was assayed for ALP activity by a chemiluminescence assay; a 10 μl aliquot of the conditioned medium was mixed with 100 μl assay buffer (0.1 M diethanolamine, 1 mM MgCl2) and 0.5 mM disodium 3-(4-methoxyspiro 1,2-dioxetane-3,2′-(5′-chloro)-tricyclo[3.3.1.13,7]decan-4-yl)phenyl phosphate (CSPD) (Tropix, Applied Biosystems) and incubated for 20 min at 37° C. and 15 min at room temperature before measurement of the chemiluminescent signal (one second per well) in a Wallac Microbeta Trilux 1450-028 (PerkinElmer). The ALP activity expressed in LCPS is directly proportional to the level of ALP expressed by the cells. The half maximal effective concentrations of the test compounds (EC50) were calculated from the curves fitted to the concentration-response data with a four parameter logistic model in XLfit software version 2.0 (IDBS) or later.

T2 sequence (Q92731 whole entry): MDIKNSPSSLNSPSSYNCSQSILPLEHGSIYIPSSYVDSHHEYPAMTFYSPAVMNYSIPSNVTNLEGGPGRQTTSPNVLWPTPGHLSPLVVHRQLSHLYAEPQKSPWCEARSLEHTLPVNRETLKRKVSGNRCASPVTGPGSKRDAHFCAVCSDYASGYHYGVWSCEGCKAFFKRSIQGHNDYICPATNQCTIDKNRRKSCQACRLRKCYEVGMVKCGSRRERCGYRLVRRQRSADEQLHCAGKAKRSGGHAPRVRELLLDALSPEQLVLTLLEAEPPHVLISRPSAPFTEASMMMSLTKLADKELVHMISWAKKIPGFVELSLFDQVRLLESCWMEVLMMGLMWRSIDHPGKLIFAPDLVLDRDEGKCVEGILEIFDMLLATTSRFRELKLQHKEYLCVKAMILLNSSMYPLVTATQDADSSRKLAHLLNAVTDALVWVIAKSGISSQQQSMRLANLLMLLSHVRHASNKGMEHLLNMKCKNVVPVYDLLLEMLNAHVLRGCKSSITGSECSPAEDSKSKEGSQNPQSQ
T1 sequence (Q92731 255-530): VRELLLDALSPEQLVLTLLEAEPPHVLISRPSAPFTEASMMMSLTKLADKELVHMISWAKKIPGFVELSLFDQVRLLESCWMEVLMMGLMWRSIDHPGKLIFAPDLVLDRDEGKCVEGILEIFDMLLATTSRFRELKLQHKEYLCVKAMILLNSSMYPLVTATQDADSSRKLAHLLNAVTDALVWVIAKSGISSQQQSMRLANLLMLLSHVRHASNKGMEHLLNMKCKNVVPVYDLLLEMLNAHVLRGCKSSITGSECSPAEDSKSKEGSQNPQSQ

Structure (SMILES) | IC50 (human ERβ (ERβ-LBD)) [nM] | EC50 [1] [nM]
C/C=C\c1c(C#N)c2ccccc2n1-c1ccc(O)cc1 [Example 68, 1-(4-Hydroxy-phenyl)-2-((Z)-propenyl)-1H-indole-3-carbonitrile] | 1 to 200 | 1 to 50
Cc1noc(C)c1-c1c(/C(N)=N/O)c2ccccc2n1-c1ccc(O)cc1 [Example 11, (Z)-2-(3,5-dimethylisoxazol-4-yl)-N′-hydroxy-1-(4-hydroxyphenyl)-1H-indole-3-carboximidamide] | 1 to 200 | 1 to 50
CC(C)=Cc1c(C#N)c2cc(F)ccc2n1-c1ccc(O)cc1 [Example 220, 5-Fluoro-1-(4-hydroxy-penyl)-2-(2-methyl-prop-1-enyl)-1H-indole-3-carbonitrile] | 1 to 200 | 1 to 50
CC(C)=Cc1c(/C(N)=N/O)c2cc(F)ccc2n1-c1ccc(O)cc1 [Example 223, (Z)-5-fluoro-N′-hydroxy-1-(4-hydroxyphenyl)-2-(2-methylprop-1-enyl)-1H-indole-3-carboximidamide] | 1 to 200 | 1 to 50
C=C(C)c1c(-c2ccccc2)n(-c2ccc(O)cc2)c2ccccc12 [Example 163, 4-(3-Isopropenyl-2-phenyl-indol-1-yl)-phenol] | 1 to 200 | 1 to 50
Cc1noc(C)c1-c1c(C(N)=NO)c2ccccc2n1-c1ccc(O)cc1F [Example 235, (Z)-2-(3,5-dimethylisoxazol-4-yl)-1-(2-fluoro-4-hydroxyphenyl)-N′-hydroxy-21H-indole-3-carboximidamide] | 1 to 200 | 1 to 50
Cc1noc(C)c1-c1c(-c2ccccc2)c2ccccc2n1-c1ccc(O)cc1 [Example 42, 4-(2-(3,5-dimethylisoxazol-4-yl)-3-phenyl-1H-indol-1-yl)phenol] | 1 to 200 | 1 to 50
Cc1ccc(C)n1-c1c(/C(N)=N/O)c2ccccc2n1-c1ccc(O)cc1 [Example 194, (Z)-2-(2,5-dimethyl-1H-pyrrol-1-yl)-N′-hydroxy-1-(4-hydroxyphenyl)-1H-indole-3-carboximidamide] | 1 to 200 | 1 to 50
C/C=C(/C)c1c(/C(N)=N/O)c2ccccc2n1-c1ccc(O)cc1 [Example 191, (Z)-2-((Z)-but-2-en-2-yl)-N′-hydroxy-1-(4-hydroxyphenyl)-1H-indole-3-carboximidamide] | 1 to 200 | 1 to 50
CC(C)=Cc1c(C#N)c2ccccc2n1-c1ccc(O)cc1 [Example 39, 2-(Isobut-1-enyl)-1-(4-hydroxyphenyl)-1H-indole-3-carbonitrile] | 1 to 200 | 1 to 50
Cc1cccn1-c1c(/C(N)=N/O)c2ccccc2n1-c1ccc(O)cc1 [Example 188, (Z)-N′-hydroxy-1-(4-hydroxyphenyl)-2-(2-methyl-1H-pyrrol-1-yl)-1H-indole-3-carboximidamide] | 1 to 200 | 1 to 50
Cc1noc(C)c1-c1c(/C(N)=N/O)c2cc(F)ccc2n1-c1ccc(O)cc1 [Example 221, (Z)-2-(3,5-dimethylisoxazol-4-yl)-5-fluoro-N′-hydroxy-1-(4-hydroxyphenyl)-1H-indole-3-carboximidamide] | 1 to 200 | 1 to 50
